Our source for the relative viability values is the supplement of paper PMC10307832.

Common to all, as to experiment: relative viability (nuclei count vs DMSO), 5 days (fraction); higher = more cells survive
Compound in the assay “ALW-II-49-7 + Navitoclax”: Cc1ccc(C(=O)Nc2cccc(C(F)(F)F)c2)cc1Nc1cncc(C(N)=O)c1 [ALW-II-49-7] + CC1(C)CCC(c2ccc(Cl)cc2)=C(CN2CCN(c3ccc(C(=O)NS(=O)(=O)c4ccc(N[C@H](CCN5CCOCC5)CSc5ccccc5)c(S(=O)(=O)C(F)(F)F)c4)cc3)CC2)C1 [Navitoclax] (partner 0.5 µM)
A digest of the protocol: (§1)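 After 5 days of treatment, lung cancer cells in 1536-well plates were fixed and stained in a single step (final 0.05% Triton X-100, 1% formaldehyde, 1 ug/ml Hoechst) and their nuclei counted on 4× images. Treatment had been applied by pin tool the day after seeding as one drug alone or as a fixed anchor-drug dose with five library-drug doses (not always all listed) in √10 steps. Relative viability is the nuclei count of treated wells divided by that of vehicle wells, and values are medians of duplicate plates.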

Compound in the assay “ALW-II-49-7 + OSI-027”: Cc1ccc(C(=O)Nc2cccc(C(F)(F)F)c2)cc1Nc1cncc(C(N)=O)c1 [ALW-II-49-7] + COc1cccc2cc(-c3nc([C@H]4CC[C@H](C(=O)O)CC4)n4ncnc(N)c34)[nH]c12 [OSI-027] (partner 0.5 µM)
A digest of the protocol:
as §1

Compound in the assay “ALW-II-49-7 + Vorinostat”: Cc1ccc(C(=O)Nc2cccc(C(F)(F)F)c2)cc1Nc1cncc(C(N)=O)c1 [ALW-II-49-7] + O=C(CCCCCCC(=O)Nc1ccccc1)NO [Vorinostat] (partner 1 µM)
The method in brief:
as §1

Compound in the assay “Dasatinib + Olaparib”: Cc1nc(Nc2ncc(C(=O)Nc3c(C)cccc3Cl)s2)cc(N2CCN(CCO)CC2)n1 [Dasatinib] + O=C(c1cc(Cc2n[nH]c(=O)c3ccccc23)ccc1F)N1CCN(C(=O)C2CC2)CC1 [Olaparib] (partner 8 µM)
The method in brief: as §1

Take UMC-11: the relative viability with ALW-II-49-7 + Navitoclax (first compound 0.08 µM) was 0.311; with ALW-II-49-7 + Navitoclax (first compound 0.253 µM), 0.345; with ALW-II-49-7 + Navitoclax (first compound 2.53 µM), 0.322; with ALW-II-49-7 + Navitoclax (first compound 8 µM), 0.335; with ALW-II-49-7 + OSI-027 (first compound 0.08 µM), 0.499; with ALW-II-49-7 + OSI-027 (first compound 0.253 µM), 0.457. For the same cell line, the relative viability in the assay with ALW-II-49-7 + OSI-027 (first compound 0.8 µM) worked out at 0.487; with ALW-II-49-7 + OSI-027 (first compound 2.53 µM), 0.434; in the assay with ALW-II-49-7 + OSI-027 (first compound 8 µM) it was 0.485; with ALW-II-49-7 + Vorinostat (first compound 0.08 µM) it was 0.36; with ALW-II-49-7 + Vorinostat (first compound 0.253 µM), 0.381; with ALW-II-49-7 + Vorinostat (first compound 0.8 µM), 0.324. In addition, the relative viability in the assay with ALW-II-49-7 + Vorinostat (first compound 2.53 µM) stood at 0.357; with ALW-II-49-7 + Vorinostat (first compound 8 µM) it was 0.305; with Dasatinib + Olaparib (first compound 0.005 µM), 0.542; in the assay with Dasatinib + Olaparib (first compound 0.01581 µM), 0.377; with Dasatinib + Olaparib (first compound 0.05 µM) it was 0.427; with Dasatinib + Olaparib (first compound 0.1581 µM), 0.272. Besides, the relative viability in the assay with Dasatinib + Olaparib (first compound 0.5 µM) is 0.247.
